Tests used:
[1] = sALT (hepatotoxicity) after 7 daily ip doses; format: in vivo; parameters: unit not given here; conditions: 7 daily doses ip, 1.25 mg Se/kg, with corn oil; untreated mice 37.5 ± 2.9
Description: (§1) Many of the mRNA changes seen with a single dose were not sustained with multiple dosing. Changes in Ugt transcripts after multiple dosing were noticeably absent. Unique to BSCA among the four new compounds investigated was its ability to induce Gst-alpha, Gst-mu and GPx mRNAs. For the Gst-alpha transcripts, which appeared elevated by corn oil, the BSCA increase was much greater than the vehicle alone (8-fold versus 2-fold) and was statistically significant (p<0.05). BSCA shared with PhOHSCA the ability to elevate mEH mRNA.

GPx [2] = assay: Northern blot of liver GPx mRNA after ip dosing; format: in vivo, mice; conditions: mean ± SEM
Description: (§2) Linking efficacy to biochemical parameters and a mechanism was limited in the initial study by only two parameters, [Se] and GPx activity. The in-vivo effects of selenazolidine compounds were then evaluated using, in addition to GPx, glutathione S-transferases (GSTs), quinone oxidoreductases (NQORs), UDP-glucuronosyltransferases (UGTs), and microsomal epoxide hydrolase (mEH). To investigate transcriptional changes of these classes of enzymes, it was necessary to develop a battery of cDNA probes for use in Northern blot analysis of RNA extracted from treated animals (Table 2).
(§3) Whether the selenaproline compounds had the ability to up-regulate the transcription of Phase II and/or other “protective” enzymes was first evaluated following a single dose of each (Table 3). […] The experiment was repeated but with a 7-day treatment regimen (Table 4), the time period for which the compounds were given in the diet before NNK administration in the tumor experiment reported in Table 1. […] With multiple doses, SCA induced Ugt1a9, an mRNA that was not changed with a single dose. […] The elevation in the Gst-mu transcript was unique to multiple OSCA treatment. The elevation of the GST-alpha mRNA was also seen with SCA treatment. Microsomal epoxide hydrolase mRNA was robustly elevated by multiple doses of all three selenaproline compounds, an effect not anticipated from the single dose experiment where not even minor changes were apparent.

Gst-alpha = assay: Northern blot of liver Gst-alpha mRNA after ip dosing; format: in vivo, mice; conditions: mean ± SEM
Description: as §2, §3

Ugt1a1 = assay: Northern blot of liver Ugt1a1 mRNA after ip dosing; format: in vivo, mice; conditions: mean ± SEM
Description: as §2, §3

Gst-mu = assay: Northern blot of liver Gst-mu mRNA after ip dosing; format: in vivo, mice; conditions: mean ± SEM
Description: as §2, §3

Ugt1a9 = assay: Northern blot of liver Ugt1a9 mRNA after ip dosing; format: in vivo, mice; conditions: for Ugt1a9 mRNA: mean ± SEM
Description: as §2, §3

mEH = assay: Northern blot of liver mEH mRNA after ip dosing; format: in vivo, mice; conditions: mean ± SEM
Description: as §2, §3

Ugt1a6 = assay: Northern blot of liver Ugt1a6 mRNA after ip dosing; format: in vivo, mice; conditions: mean ± SEM
Description: as §2, §3

[3] = test system: 'protective' enzyme mRNAs; assay: Northern blot of 'protective' enzyme mRNAs (all probes) after ip dosing; format: in vivo, mice; conditions: 7 daily doses ip, with corn oil
Description: as §2, §1

NNK lung tumor = NNK lung tumor four-month feeding study; format: in vivo; conditions: mice, diet 15 ppm Se from 1 week prior to NNK (10 umol, ip), sacrificed after 16 weeks
Description: (§4) Three novel selenazolidines, 2-methyl-, 2-oxo- and 2-unsubstituted (i.e., selenaproline) selenazolidine-4[R]-carboxylic acid (MSCA, OSCA, and SCA respectively) that had been synthesized as prodrugs of selenocysteine were evaluated for their potential to act as cancer chemopreventive agents. [Se] and GPx activity were evaluated.
(§5) Where indicated, mice (16 g) were given diets fortified with SCA, MSCA or OSCA (15 ppm Se) for 1 week prior to NNK (10 umol, ip). Two other groups received the unmodified AIN-76A diet, with and without NNK administration. All groups were maintained on their pretreatment diet until the animals were sacrificed after 16 weeks. Liver GPx activity is expressed as μmol NADPH oxidized [in regenerating GSH]/min/mg 10,000 g×20 min supernatant protein; RBC activity as μmol/min/mg RBC lysate hemoglobin.

GPx [4] = assay: Hepatic and RBC (tButylOOH) GPx activity in four-month feeding study; format: in vivo; conditions: mice, diet 15 ppm Se, NNK
Description: as §4, §5

GST = assay: Hepatic cytosolic GST (CDNB) activity after 7 daily ip doses; format: in vivo, mice; conditions: 7 daily doses ip, hepatic cytosol; naive 5248 ± 503
[5] = Body weight gain and liver weight in four-month feeding study; format: in vivo; conditions: mice, diet 15 ppm Se, NNK
Description: as §5

GPx [6] = assay: Hepatic cytosolic GPx (H202) activity after 7 daily ip doses; format: in vivo, mice; conditions: 7 daily doses ip, hepatic cytosol; naive 894 ± 36
E. coli AB1157 = assay: Toxicity in E. coli AB1157 (colony forming ability); format: cell-based; conditions: E. coli AB1157, cell viability by colony forming ability
Description: A well characterized bacterial system was used as an initial screen for radioprotective activity of the novel compounds. A single colony of the bacteria, growing on a plate of LB medium (10 g tryptone, 5 g yeast extract, plus 5 g NaCl in 1 L water), was inoculated into 2 mL LB and incubated overnight. 20 mL LB medium were then inoculated with 600 μL of the overnight culture, and incubated with shaking at 37° C., 250 rpm. The cells were collected and washed with phosphate buffered saline. At this point the bacteria could be irradiated, treated with drug, etc., as outlined below. After dilution of the treated cells to 100 cells per 100 μL, they are plated out and incubated overnight. Cell viability is then measured by colony forming ability.
The toxicity of the compounds of interest in this system was explored.

[7] = 7 daily doses ip, 1.25 mg Se/kg, with corn oil, liver RNA 24 hours after the last dose
[8] = 1 dose ip, 1.25 mg Se/kg in corn oil, liver RNA 24 hours after dosing
[9] = 1 dose ip, 1.25 mg Se/kg, liver RNA 24 hours after dosing
[10] = 7 daily doses ip, 1.25 mg Se/kg, liver RNA 24 hours after the last dose

## 2-(2-hydroxyphenyl)-SCA [PhOHSCA]
[1]
  sALT: 42.4 ± 3.0
GPx [2]; [7]
  GPx mRNA: 1.51 ± 0.50 fold change from naive
Gst-alpha; [8]
  Gst-alpha mRNA: 1.49 ± 0.22 fold change from naive
Gst-alpha; [7]
  Gst-alpha mRNA: 1.91 ± 0.71 fold change from naive
Ugt1a1; [7]
  Ugt1a1 mRNA: 0.77 ± .04 fold change from naive
Gst-mu; [8]
  Gst-mu mRNA: 1.18 ± 0.32 fold change from naive
Gst-mu; [7]
  Gst-mu mRNA: 1.54 ± 0.23 fold change from naive
Ugt1a9; [8]
  Ugt1a9 mRNA: 1.65 ± 0.32 fold change from naive
Ugt1a9; 1 dose ip, in corn oil, comparison with corn oil alone
  Ugt1a9 transcript expression compared to the corn oil effect: significantly reduced
Ugt1a9; [7]
  Ugt1a9 mRNA: 1.06 ± .14 fold change from naive
mEH; [8]
  mEH mRNA: 1.38 ± 0.48 fold change from naive
Ugt1a6; [7]
  Ugt1a6 mRNA: 0.99 ± 0.14 fold change from naive

## O=C(O)C1C[Se]C(C2CCCCC2)N1 (mixture of isomers) [ChSCA, 2-cyclohexyl-SCA]
[3]
  Induction of 'protective' enzyme mRNAs (any): failed to induce any mRNAs
[1]
  sALT: 40.0 ± 1.7
GPx [2]; [8]
  GPx mRNA: 1.20 ± 0.15 fold change from naive
GPx [2]; [7]
  GPx mRNA: 2.26 ± 0.66 fold change from naive
Gst-alpha; [8]
  Gst-alpha mRNA: 1.73 ± 0.20 fold change from naive
Gst-alpha; [7]
  Gst-alpha mRNA: 1.99 ± 0.77 fold change from naive
Ugt1a1; [7]
  Ugt1a1 mRNA: 1.20 ± 0.17 fold change from naive
Gst-mu; [8]
  Gst-mu mRNA: 1.20 ± 0.15 fold change from naive
Gst-mu; [7]
  Gst-mu mRNA: 1.32 ± 0.21 fold change from naive
Ugt1a9; [8]
  Ugt1a9 mRNA: 3.04 ± 0.55 fold change from naive
Ugt1a9; 1 dose ip, 1.25 mg Se/kg in corn oil, liver RNA 24 hours after dosing, listed as CnSCA
  Ugt1a9 mRNA: statistically elevated
Ugt1a9; [7]
  Ugt1a9 mRNA: 1.16 ± 0.13 fold change from naive
mEH; [8]
  mEH mRNA: 1.34 ± 0.41 fold change from naive
mEH; [7]
  mEH mRNA: 1.31 ± 0.19 fold change from naive
Ugt1a6; [7]
  Ugt1a6 mRNA: 1.22 ± 0.17 fold change from naive

## CC1N[C@H](C(=O)O)C[Se]1 (mixture of isomers) [MSCA, 2(R,S)-Methylselenazolidine-4(R)-carboxylic acid]
NNK lung tumor
  NNK Tumors: 8.3 ± 0.9
GPx [4]; RBC
  RBC (tButylOOH) GPx: 220 ± 32 μmol/min/mg RBC lysate hemoglobin
GPx [4]; liver
  Hepatic (tButylOOH) GPx: 564 ± 46 μmol NADPH oxidized/min/mg 10,
GST
  GST (CDNB) activity: 6948 ± 502 nmol/mg cytosol (100,000 g supernatant) protein/min
GPx [2]; [9]
  GPx (1.5 kb) mRNA: 1.65 ± 0.27 fold change from naive
GPx [2]; [10]
  GPx mRNA: 1.43 ± 0.35 fold change from naive
Gst-alpha; [9]
  Gst-alpha mRNA: 1.00 ± 0.19 fold change from naive
Gst-alpha; [10]
  Gst-alpha mRNA: 1.18 ± 0.33 fold change from naive
Ugt1a1; [9]
  Ugt1a1 mRNA: 1.07 ± 0.11 fold change from naive
Ugt1a1; [10]
  Ugt1a1 mRNA: 1.15 ± 0.09 fold change from naive
[5]
  Body wt gain (%): 49.3%
  Liver weight: 1.17 ± 0.02 g
GPx [6]
  GPx (H202) activity: 944 ± 32 nmol/mg cytosol (100,000 g supernatant) protein/min
Gst-mu; [9]
  Gst-mu mRNA: 1.07 ± 0.57 fold change from naive
Gst-mu; [10]
  Gst-mu mRNA: 1.65 ± 0.18 fold change from naive
Ugt1a9; [9]
  Ugt1a9 mRNA: 1.47 ± 0.18 fold change from naive
Ugt1a9; [10]
  Ugt1a9 mRNA: 1.22 ± 0.29 fold change from naive
mEH; [9]
  mEH mRNA: 1.06 ± 0.12 fold change from naive
mEH; [10]
  mEH mRNA: 3.35 ± 1.21 fold change from naive
Ugt1a6; [9]
  Ugt1a6 mRNA: 1.21 ± 0.28 fold change from naive
Ugt1a6; [10]
  Ugt1a6 mRNA: 1.02 ± 0.15 fold change from naive

## O=C(O)C1C[Se]C(c2ccccc2)N1 (mixture of isomers) [PhSCA, 2-phenyl-SCAS]
[3]
  Induction of 'protective' enzyme mRNAs (any): failed to induce any mRNAs
[1]
  sALT: 37.3 ± 1.4
GPx [2]; [8]
  GPx mRNA: 0.74 ± 0.16 fold change from naive
GPx [2]; [7]
  GPx mRNA: 1.46 ± 0.35 fold change from naive
Gst-alpha; [8]
  Gst-alpha mRNA: 0.63 ± 0.14 fold change from naive
Gst-alpha; [7]
  Gst-alpha mRNA: 2.29 ± 0.68 fold change from naive
Ugt1a1; [8]
  Ugt1a1 mRNA: 1.41 ± 0.30 fold change from naive
Ugt1a1; [7]
  Ugt1a1 mRNA: 1.32 ± 0.12 fold change from naive
Gst-mu; [8]
  Gst-mu mRNA: 0.74 ± 0.16 fold change from naive
Gst-mu; [7]
  Gst-mu mRNA: 1.01 ± 0.27 fold change from naive
Ugt1a9; [8]
  Ugt1a9 mRNA: 2.14 ± 0.54 fold change from naive
Ugt1a9; [7]
  Ugt1a9 mRNA: 0.83 ± 0.08 fold change from naive
mEH; [8]
  mEH mRNA: 0.98 ± 0.27 fold change from naive
mEH; [7]
  mEH mRNA: 0.80 ± 0.15 fold change from naive
Ugt1a6; [8]
  Ugt1a6 mRNA: 1.78 ± 0.54 fold change from naive
Ugt1a6; [7]
  Ugt1a6 mRNA: 0.96 ± 0.04 fold change from naive

## NCCCN1CCSC1=O [2-oxo prodrug, 3-(3-Aminopropyl)-2-thiazolidinone]
E. coli AB1157
  Toxicity in the bacterial system: neither WR-1065 nor its 2-oxo prodrug produced any toxicity

— US7425635B2, “Prodrugs and conjugates of thiol- and selenol-containing compounds and methods of use thereof” (University of Utah Research Foundation, priority 1997, dated 2008)
